Data reported in patent publication US20070026079A1, “Intranasal administration of modulators of hypothalamic ATP-sensitive potassium channels” (priority 2005, published 2007).

How the values were obtained:
[1] = system: KATP channels within the medial hypothalamus; test: Intrahypothalamic (IH) infusion of diazoxide or insulin with pancreatic-insulin clamp in rats; format: in vivo, Sprague-Dawley rats; conditions: for rate of glucose infusion required to prevent hypoglycemia: IH infusion during pancreatic clamp, vs vehicle; for blood glucose levels / glucose production (GP): IH infusion; for blood glucose levels: bilateral, medial hypothalamus, fifteen-fold lower dose than ICV; for glucose production (GP): basal circulating insulin
Text: Animal preparation for the in vivo experiments. Rats. Eighty-nine 10-week-old male Sprague-Dawley rats (Charles River Breeding Laboratories, Wilmington, Mass.) were studied. Rats were housed in individual cages and subjected to a standard light-dark cycle. Three weeks prior to the in vivo studies, chronic catheters were implanted in the third cerebral ventricle (Obici et al., 2003; Liu et al., 1998) or intrahypothalamically (Morton et al., 2003) (IH) by stereotaxic surgery. One week before the pancreatic-insulin clamp protocols, rats received additional catheters in the right internal jugular and left carotid artery (FIG. 5) (Obici et al., 2003; Liu et al., 1998). In vivo studies. For the studies in rats, the metabolic experiments were performed ˜3 weeks after stereotaxic surgery following complete recovery from the operation (FIG. 5). All solutions were diluted with artificial cerebral spinal fluid (aCSF). […] Pancreatic-insulin clamp studies were performed as previously described (Liu et al., 1998). Euglycemic-hyperinsulinemic clamps in conscious, unrestrained, catheterized […] were performed for 90 min as previously described (Obici et al., 2003; Liu et al., 1998).

central KATP channels = test: ICV infusion of diazoxide with pancreatic-insulin clamp (1 mU/kg.min) in conscious rats; format: in vivo, Sprague-Dawley rats
Text: (§1) Animal preparation for the in vivo experiments. Rats. Eighty-nine 10-week-old male Sprague-Dawley rats (Charles River Breeding Laboratories, Wilmington, Mass.) were studied. Rats were housed in individual cages and subjected to a standard light-dark cycle. Three weeks prior to the in vivo studies, chronic catheters were implanted in the third cerebral ventricle (Obici et al., 2003; Liu et al., 1998) or intrahypothalamically (Morton et al., 2003) (IH) by stereotaxic surgery. One week before the pancreatic-insulin clamp protocols, rats received additional catheters in the right internal jugular and left carotid artery (FIG. 5) (Obici et al., 2003; Liu et al., 1998).
(§2) In vivo studies. For the studies in rats, the metabolic experiments were performed ˜3 weeks after stereotaxic surgery following complete recovery from the operation (FIG. 5). All solutions were diluted with artificial cerebral spinal fluid (aCSF). […] Pancreatic-insulin clamp studies were performed as previously described (Liu et al., 1998). Euglycemic-hyperinsulinemic clamps in conscious, unrestrained, catheterized mice were performed for 90 min as previously described (Obici et al., 2003; Liu et al., 1998).
(§3) Hepatic alucose fluxes. Rate of hepatic glucose fluxes was determined as described. Barzilai et al., 1997).

G6 Pase = test: Hepatic expression of G6 Pase by real-time PCR after central infusions; format: in vivo, Sprague-Dawley rats
Text: (§4) Gene expression. Gluconeogenic enzymes. Quantitative analysis of gene expression was done using RT-PCR. Total RNA was isolated with Trizol (Invitrogen) and single-strand cDNA was synthesized with a kit provided by Invitrogen. Real-time PCR reactions and the primers for G6 Pase and PEPCK were done as described (Pocai et al., in press). The copy number of each transcript was derived from a standard curve of cloned target templates. Expression of each transcript was normalized to copy number for 18s ribosomal protein.

[2] = system: hypothalamic KATP channels; test: Central insulin or diazoxide in rats on a high fat diet for three days (hepatic insulin resistance); format: in vivo; conditions: basal plasma insulin (20 μU/ml)
Protocol: Additional-experiments were also performed in rats maintained on a high fat diet regimen for three days.

PEPCK = test: Hepatic expression of PEPCK by real-time PCR after central infusions; format: in vivo, Sprague-Dawley rats
Text: as §4

[3] = system: hypothalamic KATP channels; test: ICV infusion of insulin, KATP channel blocker (glibenclamide) or both with pancreatic-insulin clamp (1 mU/kg.min) in rats; format: in vivo, Sprague-Dawley rats; conditions: for Glucose: plasma; for rate of glucose infusion / glucose requirements: near basal circulating insulin levels
Text: as §1, with “surgery.” for “surgery. One week before the pancreatic-insulin clamp protocols, rats received additional catheters in the right internal jugular and left carotid artery (FIG. 5) (Obici et al., 2003; Liu et al., 1998).”
(§5) In vivo studies. For the studies in rats, the metabolic experiments were performed ˜3 weeks after stereotaxic surgery following complete recovery from the operation (FIG. 5). All solutions were diluted with artificial cerebral spinal fluid (aCSF). […] Euglycemic-hyperinsulinemic clamps in conscious, unrestrained, catheterized mice were performed for 90 min as previously described (Obici et al., 2003; Liu et al., 1998).
as §3

[4] = system: hepatic glucose production; test: Pancreatic-hyperinsulinemic clamp (systemic insulin 3 mU/kg.min) in SHAM and HV rats; format: in vivo, Sprague-Dawley rats; conditions: systemic hyperinsulinemia ~3-fold over basal
Protocol: Panel A is a schematic representation of the pancreatic-hyperinsulinemic clamp procedure. At t=120 an infusion of labeled glucose was initiated and maintained for the remaining 4 hours of the study and a pancreatic hyperinsulinemic clamp was initiated at t=240 min and lasted for 2 hours.
as §2
(§6) Selective hepatic branch vagotomy. One week before the clamp procedure a subgroup of rats underwent selective hepatic vagotomy (HV) or sham operation (SHAM). Anatomical nerve transactions was verified in each rat at sacrifice by microscopic observation of the absence of vagal nerve fibers in between the two silk sutures that had been placed along the trunk at the time of transection (la Fleur et al., 2003).

[5] = target: T1, hypothalamic insulin receptors (Rattus norvegicus, UniProt P15127); test: ICV insulin with pancreatic-insulin clamp in rats with hepatic vagotomy (HV), sham operation or vagal deafferentation; format: in vivo, Sprague-Dawley rats; conditions: for Body wt.: ICV infusion; for 14C-PEP: liver
T1 construct: Paired groups of SHAM and HV rats received an ICV infusion of either insulin or vehicle; from tissue; host or cells: brain/hypothalamus of living Sprague-Dawley rats (sham, hepatic vagotomy or vagal deafferentation)
Text: as §1, with “surgery.” for “surgery. One week before the pancreatic-insulin clamp protocols, rats received additional catheters in the right internal jugular and left carotid artery (FIG. 5) (Obici et al., 2003; Liu et al., 1998).”
as §5, §6
Selective vagal deafferentation. Nerve transection was performed as previously described, according to the methods of Norgren and Smith (Norgren & Smith, 1998).
as §3

[6] = ICV infusion, liver harvested at completion of infusions
[7] = Basal, before the clamp, ICV infusion

T1 sequence (P15127 27-759 limits assumed): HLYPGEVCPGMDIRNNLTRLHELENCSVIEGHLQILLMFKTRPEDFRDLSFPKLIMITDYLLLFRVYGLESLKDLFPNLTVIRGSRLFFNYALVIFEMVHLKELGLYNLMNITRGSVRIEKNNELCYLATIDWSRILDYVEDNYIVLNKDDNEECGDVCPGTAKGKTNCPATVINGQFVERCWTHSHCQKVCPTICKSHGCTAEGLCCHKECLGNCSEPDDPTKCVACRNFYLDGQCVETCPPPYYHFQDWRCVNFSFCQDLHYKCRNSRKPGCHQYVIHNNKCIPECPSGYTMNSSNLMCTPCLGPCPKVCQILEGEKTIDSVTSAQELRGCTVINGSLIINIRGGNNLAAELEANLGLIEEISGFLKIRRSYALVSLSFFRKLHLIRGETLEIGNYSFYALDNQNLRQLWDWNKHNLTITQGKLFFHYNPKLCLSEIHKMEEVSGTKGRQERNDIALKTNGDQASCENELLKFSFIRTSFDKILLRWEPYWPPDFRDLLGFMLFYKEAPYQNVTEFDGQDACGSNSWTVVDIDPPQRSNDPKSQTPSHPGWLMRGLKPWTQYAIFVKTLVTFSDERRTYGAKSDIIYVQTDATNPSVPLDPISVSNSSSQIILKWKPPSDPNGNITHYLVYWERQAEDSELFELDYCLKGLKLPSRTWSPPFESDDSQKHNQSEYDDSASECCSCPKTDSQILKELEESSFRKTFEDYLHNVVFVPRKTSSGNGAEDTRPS
T1 sequence (P15127 764-1383 partner limits assumed): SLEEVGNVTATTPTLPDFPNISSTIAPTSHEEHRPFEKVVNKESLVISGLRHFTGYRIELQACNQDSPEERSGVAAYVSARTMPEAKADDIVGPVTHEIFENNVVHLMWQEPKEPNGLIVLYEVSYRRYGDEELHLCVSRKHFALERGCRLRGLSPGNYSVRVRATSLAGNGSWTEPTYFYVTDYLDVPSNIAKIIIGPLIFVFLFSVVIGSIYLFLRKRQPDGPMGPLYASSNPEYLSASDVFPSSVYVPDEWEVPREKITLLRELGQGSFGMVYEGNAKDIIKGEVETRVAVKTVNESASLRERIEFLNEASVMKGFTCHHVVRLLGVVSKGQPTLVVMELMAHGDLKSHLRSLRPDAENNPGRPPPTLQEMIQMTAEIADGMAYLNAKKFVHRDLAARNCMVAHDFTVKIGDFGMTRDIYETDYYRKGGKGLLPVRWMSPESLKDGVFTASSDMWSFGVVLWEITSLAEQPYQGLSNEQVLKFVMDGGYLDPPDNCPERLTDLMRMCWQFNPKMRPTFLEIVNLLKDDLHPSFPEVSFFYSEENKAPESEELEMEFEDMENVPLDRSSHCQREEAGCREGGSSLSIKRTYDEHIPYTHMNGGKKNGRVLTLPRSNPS

CC1=NS(=O)(=O)c2cc(Cl)ccc2N1 [diazoxide]
rate of glucose infusion required to prevent hypoglycemia [1]: significant increases | blood glucose levels [1]: lowered blood glucose levels | glucose production (GP) [1]: marked suppression of GP | Glucose (central KATP channels; Basal, before the clamp, plasma, ICV infusion): 7.9 ± 0.4 mM | gluconeogenesis (central KATP channels; ICV): marked inhibition of gluconeogenesis | glucose cycling (central KATP channels; ICV): significantly reduced glucose cycling | rate of glycogenolysis (central KATP channels; ICV): not significantly decreased | blood glucose levels (central KATP channels; ICV (third cerebral ventricle), conscious rats): lowered blood glucose levels | glucose infusion required to prevent hypoglycemia (central KATP channels; ICV, basal circulating insulin levels): glucose infusion was required to prevent hypoglycemia | decrease in glucose production (GP) (central KATP channels; ICV, basal insulin levels (~20 μU/ml)): 45±4% | flux through G6 Pase (central KATP channels; ICV, in vivo): decreased the flux through G6 Pase | rate of glucose uptake (central KATP channels; ICV, pancreatic-insulin clamp): not significantly affected | % Indirect (central KATP channels; indirect pathway (gluconeogenesis), ICV infusion, Table 6): 9.7 ± 4.1 % | liver G6 Pase mRNA levels (G6 Pase; [6]): markedly decreased | inhibition of glucose production ([2]; ICV or intrahypothalamic infusion): ~45% | liver PEPCK mRNA levels (PEPCK; [6]): markedly decreased

COc1ccc(Cl)cc1C(=O)NCCc1ccc(S(=O)(=O)NC(=O)NC2CCCCC2)cc1 [glibenclamide, 5-Chloro-N-[2-[4-(3-cyclohexylureidosulfonyl)phenyl]ethyl]-2-methoxybenzamide, reference compound]
Glucose [3, 7]: 8.2 ± 0.5 mM | Glucose ([3]; Clamp steady state, ICV infusion): 8.2 ± 0.9 mM | rate of glucose infusion / glucose requirements ([3]; ICV): did not modify the rate of glucose infusion | glucose production (GP) ([3]; ICV, pancreatic clamp): did not per se affect GP | % Indirect ([3]; indirect pathway (gluconeogenesis), ICV infusion, Table 7): 32.4 ± 3.0%

insulin
rate of glucose infusion required to prevent hypoglycemia [1]: significant increases | blood glucose levels [1]: reproduced the potent effects of ICV insulin or diazoxide | glucose production (GP) [1]: reproduced the potent effects of ICV insulin or diazoxide | suppression of GP ([4]; HV): 38±11% | suppression of GP ([4]; SHAM): 80±8% | liver G6 Pase mRNA levels (G6 Pase; [6]): marked KATP channels dependent decreases | liver G6 Pase mRNA levels (G6 Pase; SHAM, ICV): marked decrease | Body wt. ([5]; HV, Basal): 295 ± 4 g | FFA ([5]; HV, Basal, plasma): 0.5 ± 0.2 mM | Glucose ([5]; HV, Basal, plasma): 7.9 ± 0.5 mM | FFA ([5]; HV, Clamp steady state, plasma): 0.5 ± 0.3 mM | Glucose ([5]; HV, Clamp steady state, plasma): 8.0 ± 0.6 mM | Insulin ([5]; HV, Clamp steady state, plasma): 0.9 ± 0.3 ng/mL | hepatic glucose fluxes ([5]; HV, ICV): failed to affect hepatic glucose fluxes | decrease in glucose production (GP) ([5]; HV, ICV, basal and equal insulin levels): not in HV rats | 3H-Glucose Plasma SA ([5]; HV, Table 8): 52.4 ± 3.5 dpm/nmol | % Indirect ([5]; HV, indirect pathway (gluconeogenesis), Table 8): 34.4 ± 9.7% | 14C-PEP ([5]; HV, Table 8): 5.5 ± 1.4 dpm/nmol | rate of glucose uptake ([5]; ICV, either SHAM or HV rats): not significantly affected | flux through G6 Pase ([5]; SHAM, ICV): markedly decreased the flux through G6 Pase | gluconeogenesis ([5]; SHAM, ICV): marked inhibition of gluconeogenesis | glucose infusion required to prevent hypoglycemia ([5]; SHAM, ICV, ~basal circulating insulin): glucose infusion was required to prevent hypoglycemia | 3H-Glucose Plasma SA ([5]; SHAM, Table 8): 43.1 ± 1.9 dpm/nmol | 3H-UDP-glucose Liver SA ([5]; SHAM, Table 8): 5.5 ± 0.5 dpm/nmol | Direct (%) ([5]; SHAM, direct pathway, Table 8): 12.1 ± 0.71% | 14C-PEP ([5]; SHAM, Table 8): 10.9 ± 0.6 dpm/nmol | Body wt. ([5]; Sham, Basal): 310 ± 5 g | FFA ([5]; Sham, Basal, plasma): 0.5 ± 0.3 mM | Glucose ([5]; Sham, Basal, plasma): 7.9 ± 0.3 mM | FFA ([5]; Sham, Clamp steady state, plasma): 0.4 ± 0.1 mM | ability to lower blood glucose levels and to suppress GP ([5]; rats with selective vagal deafferentation, ICV): did not alter | Glucose [3, 7]: 7.8 ± 0.3 mM | flux through G6 Pase ([3]; ICV): markedly decreased the flux through G6 Pase | gluconeogenesis ([3]; ICV): marked inhibition of gluconeogenesis | rate of glycogenolysis ([3]; ICV): not significantly decreased | blood glucose levels ([3]; ICV (third cerebral ventricle)): lowers blood glucose levels | decrease in glucose production (GP) ([3]; ICV, basal and equal insulin levels): 52±8% | rate of glucose infusion / glucose requirements ([3]; ICV): glucose infusion was required to prevent hypoglycemia | inhibition of glucose production ([2]; central administration): failed to significantly inhibit glucose production | liver PEPCK mRNA levels (PEPCK; [6]): marked KATP channels dependent decreases | liver PEPCK mRNA levels (PEPCK; SHAM, ICV): marked decrease
